Assay results reported in patent US20030228581A1, “Diagnosis and treatment for late onset neurodegenerative disorder” (priority 2002, published 2003).

How the values were obtained:
[1] = tested on: Hq mutant and wild type granule cells; parameters: dose or concentration left out as unconfirmed; details: 24 hours
[2] = tested on: primary neuronal granule cell cultures from Hq mutant mice; details: 20 and 50 mM hydrogen peroxide, 5 hours, PI staining
Procedure: To determine if decrease in AIF levels leads to increased sensitivity to exogenous peroxides, primary neuronal granule cell cultures from Hq mutant mice were treated with increasing doses of hydrogen peroxide (0, 5, 20, 50 mM) for 5 hours and then stained with propidium iodide (PI) to identify apoptotic cells.

[3] = tested on: mutant and wildtype embryonic cortical cells; details: hydrogen peroxide for 24 hours, any peroxide concentration
Procedure: To determine if increased peroxide sensitivity due to loss of wild-type levels of AIF is cell-specific, primary cultures of mutant and wildtype embryonic cortical cells were treated under the identical conditions used for granule cell cultures.

[4] = tested on: primary neuronal granule cell cultures from Hq mutant mice; assay: Glutamate sensitivity of primary granule cell cultures; assay type: cell-based, mouse; parameters: unit of the concentration uncertain
Description: Low doses of glutamate cause neuronal excitotoxicity via NMDA receptors, while higher doses of glutamate trigger intracellular oxidative stress through the release of endogenous peroxides.

CN[C@@H]1C[C@H]2O[C@@](C)([C@@H]1OC)n1c3ccccc3c3c4c(c5c6ccccc6n2c5c31)C(=O)NC4 [staurosporine]
cell death, Hq mutant versus wild type granule cells [1]: no significant difference in cell death

COc1cc([C@@H]2c3cc4c(cc3[C@@H](O[C@@H]3O[C@@H]5CO[C@@H](C)O[C@H]5[C@H](O)[C@H]3O)[C@H]3COC(=O)[C@H]23)OCO4)cc(OC)c1O [etoposide]
cell death, Hq mutant versus wild type granule cells [1]: no significant difference in cell death

OO [hydrogen peroxide]
cell death, Hq mutant versus wild-type cultures [2]: Significantly more cell death | viability, mutant versus wild type cortical cells [3]: no difference in viability

N[C@@H](CCC(=O)O)C(=O)O [glutamate]
Hq mutant granule cell death ([4]; higher doses of glutamate (2000 (unit uncertain))): significant increases in Hq mutant granule cell death | cell viability, mutant versus wild type granule cells ([4]; low concentrations of glutamate (100 (unit uncertain))): Cell viability was similar
